Experimental data: ChEMBL document CHEMBL5505975, “Design, synthesis and biological evaluation of CDC20 inhibitors for treatment of triple-negative breast cancer” (Eur J Med Chem, 2024)
pIC50: −log10 of the molar value. Activity calls are given as the source filed them. The rule behind the calls is not given here.

What was measured:
[1] = test system: 4T1; assay: Antitumor activity against mouse 4T1 cells implanted in female BALB/C mouse assessed as inhibition of tumor growth at 20 to 50 mg/kg, po administered every two days for 21 days; type: functional, organism-based; conditions: dose 20-50 mg/kg, time 21.0 day
[2] = test system: 4T1; assay: Antitumor activity against mouse 4T1 cells implanted in female BALB/C mouse assessed as inhibition of tumor weight at 20 mg/kg, po administered every two days for 21 days relative to control; type: functional, organism-based; conditions: time 21.0 day
[3] = test system: 4T1; assay: Antitumor activity against mouse 4T1 cells implanted in female BALB/C mouse assessed as inhibition of tumor weight at 50 mg/kg, iv administered every two days for 21 days relative to control; type: functional, organism-based; conditions: time 21.0 day
[4] = test system: MDA-MB-231; assay: Induction of apoptosis in human MDA-MB-231 cells assessed as viable cells at 20 uM incubated for 48 hrs by Annexin V-FITC/PI staining based flow cytometric analysis (reference value: 95.10%); type: functional; conditions: read-out: Activity
[5] = test system: 4T1; assay: Antitumor activity against mouse 4T1 cells implanted in female BALB/C mouse assessed as inhibition of tumor growth at 20 to 50 mg/kg, iv administered every two days for 21 days; type: functional, organism-based; conditions: dose 20-50 mg/kg, time 21.0 day
[6] = test system: MDA-MB-231; assay: Antimigratory activity in human MDA-MB-231 cells assessed as reduction in migration ability incubated for 24 hrs by wound healing assay; type: functional, cell-based; conditions: dose 2.5-10 µM
[7] = test system: MDA-MB-231; assay: Cell cycle arrest in human MDA-MB-231 cells assessed as S phase cells at 20 uM incubated for 24 hrs by PI staining based flow cytometric analysis (reference value: 28.7%); type: functional
[8] = test system: MDA-MB-231; assay: Cell cycle arrest in human MDA-MB-231 cells assessed as G1 phase cells at 20 uM incubated for 48 hrs by PI staining based flow cytometric analysis (reference value: 56.7%); type: functional
[9] = Cytotoxicity against human L02 cells assessed as reduction in cell viability incubated for 96 hrs by MTT assay; type: toxicity, cell-based
[10] = test system: MDA-MB-231; assay: Induction of apoptosis in human MDA-MB-231 cells assessed as late apoptotic cells at 20 uM incubated for 48 hrs by Annexin V-FITC/PI staining based flow cytometric analysis (reference value: 1.06%); type: functional
[11] = test system: MDA-MB-231; assay: Induction of apoptosis in human MDA-MB-231 cells assessed as viable cells at 2.5 uM incubated for 48 hrs by Annexin V-FITC/PI staining based flow cytometric analysis (reference value: 95.10%); type: functional; conditions: read-out: Activity
[12] = test system: MDA-MB-231; assay: Induction of apoptosis in human MDA-MB-231 cells assessed as late apoptotic cells at 5 uM incubated for 48 hrs by Annexin V-FITC/PI staining based flow cytometric analysis (reference value: 1.06%); type: functional
[13] = Toxicity in female BALB/C mouse implanted with mouse 4T1 cells assessed as change in serum CREA level at 20 to 50 mg/kg, iv administered every two days for 21 days; type: organism-based; conditions: in vivo, 504 h, dose 20-50 mg/kg, time 21 day
[14] = Toxicity in female BALB/C mouse implanted with mouse 4T1 cells assessed as heart damage at 20 to 50 mg/kg, iv administered every two days for 21 days by H and E staining based analysis; type: organism-based; conditions: in vivo, 504 h, dose 20-50 mg/kg, time 21 day
[15] = Toxicity in female BALB/C mouse implanted with mouse 4T1 cells assessed as lung damage at 20 to 50 mg/kg, po administered every two days for 21 days by H and E staining based analysis; type: organism-based; conditions: in vivo, 504 h, dose 20-50 mg/kg, time 21 day
[16] = Toxicity in female BALB/C mouse implanted with mouse 4T1 cells assessed as spleen damage at 20 to 50 mg/kg, iv administered every two days for 21 days by H and E staining based analysis; type: organism-based; conditions: in vivo, 504 h, dose 20-50 mg/kg, time 21 day
[17] = test system: MDA-MB-231; assay: Induction of autophagy in human MDA-MB-231 cells assessed as autophagic lysosomes at 10 uM incubated for 48 hrs by transmission electron microscopic analysis; type: functional, cell-based
[18] = Toxicity in female BALB/C mouse implanted with mouse 4T1 cells assessed as change in serum ALT level at 20 to 50 mg/kg, po administered every two days for 21 days; type: organism-based; conditions: in vivo, 504 h, dose 20-50 mg/kg, time 21 day
[19] = test system: MDA-MB-231; assay: Cell cycle arrest in human MDA-MB-231 cells assessed as G1 phase cells at 20 uM incubated for 24 hrs by PI staining based flow cytometric analysis (reference value: 56.7%); type: functional
[20] = test system: MDA-MB-231; assay: Induction of apoptosis in human MDA-MB-231 cells assessed as early apoptotic cells at 2.5 uM incubated for 48 hrs by Annexin V-FITC/PI staining based flow cytometric analysis (reference value: 2.25 %); type: functional
[21] = test system: MDA-MB-231; assay: Cell cycle arrest in human MDA-MB-231 cells assessed as G1 phase cells at 10 uM incubated for 48 hrs by PI staining based flow cytometric analysis (reference value: 76.7%); type: functional
[22] = test system: MDA-MB-231; assay: Induction of autophagy in human MDA-MB-231 cells assessed as decrease in P62 expression level incubated for 48 hrs by Western blot analysis; type: functional, cell-based; conditions: dose 5-20 µM
[23] = Toxicity in female BALB/C mouse implanted with mouse 4T1 cells assessed as change in number of platelets at 20 to 50 mg/kg, iv administered every two days for 21 days by routine blood analysis; type: organism-based; conditions: in vivo, 504 h, dose 20-50 mg/kg, time 21 day
[24] = test system: MDA-MB-231; assay: Cell cycle arrest in human MDA-MB-231 cells assessed as G2 phase cells at 20 uM incubated for 48 hrs by PI staining based flow cytometric analysis (reference value: 14.6%); type: functional
[25] = test system: MDA-MB-468; assay: Antiproliferative activity against human MDA-MB-468 cells assessed as reduction in cell viability incubated for 96 hrs by MTT assay; conditions: MDA-MB-468, 96 h
[26] = test system: MDA-MB-231; assay: Cell cycle arrest in human MDA-MB-231 cells assessed as G1 phase cells at 20 uM incubated for 72 hrs by PI staining based flow cytometric analysis (reference value: 56.7%); type: functional
[27] = test system: MDA-MB-231; assay: Induction of apoptosis in human MDA-MB-231 cells assessed as viable cells at 10 uM incubated for 48 hrs by Annexin V-FITC/PI staining based flow cytometric analysis (reference value: 95.10%); type: functional; conditions: read-out: Activity
[28] = Toxicity in female BALB/C mouse implanted with mouse 4T1 cells assessed as change in WBC level at 20 to 50 mg/kg, iv administered every two days for 21 days by routine blood analysis; type: organism-based; conditions: in vivo, 504 h, dose 20-50 mg/kg, time 21 day
[29] = test system: MDA-MB-231; assay: Induction of apoptosis in human MDA-MB-231 cells assessed as necrotic cells at 5 uM incubated for 48 hrs by Annexin V-FITC/PI staining based flow cytometric analysis (reference value: 1.63%); type: functional
[30] = Toxicity in female BALB/C mouse implanted with mouse 4T1 cells assessed as effect on lymphocytes at 20 to 50 mg/kg, po administered every two days for 21 days by routine blood analysis; type: organism-based; conditions: in vivo, 504 h, dose 20-50 mg/kg, time 21 day
[31] = test system: MDA-MB-231; assay: Induction of apoptosis in human MDA-MB-231 cells assessed as viable cells at 5 uM incubated for 48 hrs by Annexin V-FITC/PI staining based flow cytometric analysis (reference value: 95.10%); type: functional; conditions: read-out: Activity
[32] = test system: MDA-MB-231; assay: Induction of apoptosis in human MDA-MB-231 cells assessed as early apoptotic cells at 20 uM incubated for 48 hrs by Annexin V-FITC/PI staining based flow cytometric analysis (reference value: 2.25 %); type: functional
[33] = test system: MDA-MB-231; assay: Induction of apoptosis in human MDA-MB-231 cells assessed as necrotic cells at 10 uM incubated for 48 hrs by Annexin V-FITC/PI staining based flow cytometric analysis (reference value: 1.63%); type: functional
[34] = test system: MDA-MB-231; assay: Induction of autophagy in human MDA-MB-231 cells assessed as increase in LC3BII expression level incubated for 48 hrs by Western blot analysis; type: functional, cell-based

CCC(=O)NC(n1cnc2c(Nc3cc(OC)c(OC)c(OC)c3)nc(N)nc21)C(Cl)(Cl)Cl (centres undefined)
Activity [1]: Active | Activity [2]: inactive | Activity [3]: inactive | viability at 20 µM [4]: 91.7% | Activity [5]: Active | Activity [6]: Dose-Dependent Effect | Activity [7]: 27.6% | Activity [8]: 41% | IC50 at 96 h [9]: 14.7 µM | Activity [10]: 1.96% | viability at 2.5 µM [11]: 95.7% | Activity [12]: 1.87% | Activity [13]: Non-Toxic | Activity [14]: Non-Toxic | Activity [15]: Non-Toxic | Activity [16]: Non-Toxic | Activity [17]: Active | Activity [18]: Non-Toxic | Activity [19]: 32.3% | Activity [20]: 1.34% | Activity [21]: 77.5% | Activity [22]: Dose-Dependent Effect | Activity [23]: Non-Toxic | Activity [24]: 45.7% | pIC50 [25]: 5.14 | Activity [26]: 36.4% | viability at 10 µM [27]: 92.3% | Activity [28]: Non-Toxic | Activity [29]: 0.96% | Activity [30]: Non-Toxic | viability at 5 µM [31]: 92.8% | Activity [32]: 5.41% | Activity [33]: 1.14% | Activity [34]: Dose-Dependent Effect
